Measurements taken from ChEMBL document CHEMBL1151069 (Bioorg Med Chem Lett, 1996).
Positions of bridges follow the written chain, without caps; N, C: chain ends. Residues, ends and D or L forms follow the SMILES beside them.

What was measured:
Endothelin-1 receptor = target: T1, Endothelin-1 receptor (Bos taurus, UniProt P21450); assay: Binding activity against Endothelin A receptor expressed from bovine lung membrane preparation; assay type: tissue-based
T1 sequence (P21450 whole entry): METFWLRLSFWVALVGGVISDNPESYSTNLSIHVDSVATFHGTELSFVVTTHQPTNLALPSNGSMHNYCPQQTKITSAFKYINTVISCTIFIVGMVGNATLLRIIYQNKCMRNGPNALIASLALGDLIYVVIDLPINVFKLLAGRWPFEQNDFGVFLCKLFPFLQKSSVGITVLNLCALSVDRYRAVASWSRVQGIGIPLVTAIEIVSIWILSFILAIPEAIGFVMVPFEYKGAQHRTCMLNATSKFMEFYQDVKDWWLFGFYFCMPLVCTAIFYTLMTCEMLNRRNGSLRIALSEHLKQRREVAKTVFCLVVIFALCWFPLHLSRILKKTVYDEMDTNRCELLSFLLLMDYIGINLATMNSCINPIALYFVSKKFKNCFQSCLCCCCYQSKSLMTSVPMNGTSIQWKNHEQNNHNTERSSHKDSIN

[1] = target: T2, Endothelin receptor type B (Bos taurus, UniProt P28088); assay: Binding activity against Endothelin B receptor expressed from bovine cerebellum membrane preparation; assay type: tissue-based
T2 sequence (P28088 whole entry): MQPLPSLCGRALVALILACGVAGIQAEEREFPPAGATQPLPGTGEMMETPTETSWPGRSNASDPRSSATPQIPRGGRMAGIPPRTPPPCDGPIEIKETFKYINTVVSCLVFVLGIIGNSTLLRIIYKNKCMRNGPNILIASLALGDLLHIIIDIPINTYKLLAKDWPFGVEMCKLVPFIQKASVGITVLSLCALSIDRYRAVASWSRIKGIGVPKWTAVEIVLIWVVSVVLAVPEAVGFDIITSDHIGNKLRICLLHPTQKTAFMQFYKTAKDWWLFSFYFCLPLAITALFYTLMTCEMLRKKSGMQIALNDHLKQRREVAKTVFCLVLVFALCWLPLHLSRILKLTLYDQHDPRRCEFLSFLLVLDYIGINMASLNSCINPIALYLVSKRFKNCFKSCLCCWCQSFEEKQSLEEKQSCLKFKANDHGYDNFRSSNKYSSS

SMILES	IC50 (Endothelin-1 receptor)	IC50 [1]
C[C@@H]1NC(=O)[C@@H]([C@@H](C)O)NC(=O)CNC(=O)[C@@H](Cc2cnc[nH]2)NC(=O)[C@H](Cc2c[nH]c3ccccc23)NC(=O)[C@@H](CC(N)=O)NC(=O)CNC(=O)C[C@H](C(=O)N[C@@H](Cc2c[nH]c3ccccc23)C(=O)N[C@@H](Cc2ccccc2)C(=O)N[C@@H](Cc2ccccc2)C(=O)N[C@@H](CC(N)=O)C(=O)N[C@@H](Cc2ccc(O)cc2)C(=O)N[C@@H](Cc2ccc(O)cc2)C(=O)N[C@@H](Cc2c[nH]c3ccccc23)C(=O)O)NC(=O)[C@H]2CCCN2C1=O	> 98 nM	–
C[C@@H]1NC(=O)[C@H]([C@@H](C)O)NC(=O)CNC(=O)[C@H](Cc2c[nH]cn2)NC(=O)[C@H](Cc2c[nH]c3ccccc23)NC(=O)[C@H](CC(N)=O)NC(=O)CNC(=O)C[C@@H](C(=O)N[C@@H](Cc2c[nH]c3ccccc23)C(=O)N[C@@H](Cc2ccccc2)C(=O)N[C@@H](Cc2ccccc2)C(=O)N[C@@H](CC(N)=O)C(=O)N[C@@H](Cc2ccc(O)cc2)C(=O)N[C@@H](Cc2ccc(O)cc2)C(=O)N[C@@H](Cc2ccc3ccccc3c2)C(=O)O)NC(=O)[C@@H]2CCCN2C1=O	–	6.3 nM
C[C@@H]1NC(=O)[C@@H]([C@@H](C)O)NC(=O)CNC(=O)[C@@H](Cc2c[nH]cn2)NC(=O)[C@H](Cc2c[nH]c3ccccc23)NC(=O)[C@@H](CC(N)=O)NC(=O)CNC(=O)C[C@H](C(=O)N[C@@H](Cc2c[nH]c3ccccc23)C(=O)N[C@@H](Cc2ccccc2)C(=O)N[C@@H](Cc2ccccc2)C(=O)N[C@@H](CC(N)=O)C(=O)N[C@@H](Cc2ccc(O)cc2)C(=O)N[C@H](Cc2ccc(O)cc2)C(=O)N[C@@H](Cc2c[nH]c3ccccc23)C(=O)O)NC(=O)[C@H]2CCCN2C1=O	> 98 nM	–
C[C@@H]1NC(=O)[C@H]([C@@H](C)O)NC(=O)CNC(=O)[C@H](Cc2c[nH]cn2)NC(=O)[C@H](Cc2c[nH]c3ccccc23)NC(=O)[C@H](CC(N)=O)NC(=O)CNC(=O)C[C@@H](C(=O)N[C@@H](Cc2c[nH]c3ccccc23)C(=O)N[C@@H](Cc2ccccc2)C(=O)N[C@@H](Cc2ccccc2)C(=O)N[C@@H](CC(N)=O)C(=O)N[C@@H](Cc2ccc(O)cc2)C(=O)N[C@@H](Cc2ccc(O)cc2)C(=O)NCC(=O)O)NC(=O)[C@@H]2CCCN2C1=O (GNWHGTAPDWFFNYYG-OH; lactam N-9)	> 520 nM	120 nM
